Data: patent publication US7473790B2 (Pfizer Inc., priority 2003, dated 2009)

Each compound was assayed against T1, HCV polymerase (Hepatitis C virus genotype 1b, UniProt P26663) (assay: HCV polymerase primer/template-directed transcription assay (32P-GTP incorporation, filter binding)). Conditions: @ 50 uM compound; given where IC50 was impractical to calculate; read-out: percent inhibition.
T1 construct: 2.5 pmoles (0.15 μg) HCV polymerase protein in a final volume of 75 μL
Type: biochemical
Outline: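 IC50s come from triplicate cpm, refit with an enzyme-concentration (30 nM) correction when under 200 nM. Reactions ran 30 min at 30° C in Tris pH 7.2 with MgCl2, 1 μM GTP spiked with α-32P-GTP, biotin-dG12 primer and poly(rC)300 template, with 1% DMSO. Incorporated label was collected on DE filtermats and counted.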

T1 sequence (P26663 2420-3010): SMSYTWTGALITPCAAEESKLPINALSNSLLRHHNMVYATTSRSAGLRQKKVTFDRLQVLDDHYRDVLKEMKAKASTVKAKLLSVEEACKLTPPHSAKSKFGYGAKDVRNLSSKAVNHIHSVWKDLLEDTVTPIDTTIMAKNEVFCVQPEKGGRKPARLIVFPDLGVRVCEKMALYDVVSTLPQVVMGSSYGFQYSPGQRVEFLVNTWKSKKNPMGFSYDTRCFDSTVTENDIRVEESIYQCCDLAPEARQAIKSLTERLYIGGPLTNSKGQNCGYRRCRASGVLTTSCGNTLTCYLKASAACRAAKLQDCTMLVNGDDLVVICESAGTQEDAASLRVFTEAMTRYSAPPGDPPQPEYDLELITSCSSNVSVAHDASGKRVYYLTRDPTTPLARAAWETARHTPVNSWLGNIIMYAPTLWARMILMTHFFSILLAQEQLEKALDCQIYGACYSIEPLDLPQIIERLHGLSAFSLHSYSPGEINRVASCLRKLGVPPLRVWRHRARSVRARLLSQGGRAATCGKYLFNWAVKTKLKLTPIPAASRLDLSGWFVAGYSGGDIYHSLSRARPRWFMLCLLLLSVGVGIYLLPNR

Going from `CCC1(C)CC(O)=C(Sc2nc3nc(C)cc(C)n3n2)C(=O)O1` (centres unmarked) [C(21), 3-(5,7-Dimethyl-[1,2,4]triazolo[1,5-a]pyrimidin-2-ylsulfanyl)-6-ethyl-4-hydroxy-6-methyl-5,6-dihydro-pyran-2-one] to `CCOC(=O)CC(=O)N[C@H](C)c1ccc(CCC2(C3CCCC3)CC(=O)CC(=O)O2)cc1` (some centres unmarked) [A(39), N-(1-{4-[2-(2-Cyclopentyl-4,6-dioxo-tetrahydro-pyran-2-yl)-ethyl]-phenyl}-ethyl)-malonamic acid ethyl ester], the inhibition at 50 µM rises from 12% to 14%.

Same assay, conditions: recombinant HCV polymerase; 30 minutes at 30° C.; concentration giving 50% inhibition of polymerase-directed transcription; read-out: IC50

Going from `COc1ccc(CCC2(C3CCCC3)CC(O)=C(Sc3nc(-c4ccccc4)cs3)C(=O)O2)cc1Cl` (centres unmarked) [C(106), 6-[2-(3-chloro-4-methoxyphenyl)ethyl]-6-cyclopentyl-4-hydroxy-3-[(4-phenyl-1,3-thiazol-2-yl)thio]-5,6-dihydro-2H-pyran-2-one] to `COc1ccc(CCC2(C3CCCC3)CC(O)=C(Sc3ccc4ccccc4n3)C(=O)O2)cc1Cl` (centres unmarked) [C(66), 6-[2-(3-chloro-4-methoxyphenyl)ethyl]-6-cyclopentyl-4-hydroxy-3-(quinolin-2-ylthio)-5,6-dihydro-2H-pyran-2-one], the IC50 rises from 0.24 µM to 0.9 µM (3.8-fold). The first is the more potent here.

Compared with `O=C1CC(=O)OC(CCc2ccc(N3CCCS3(=O)=O)c(F)c2)(C2CCCC2)C1` (centres unmarked) [A(134), 6-cyclopentyl-6-{2-[4-(1,1-dioxidoisothiazolidin-2-yl)-3-fluorophenyl]ethyl}dihydro-2H-pyran-2,4(3H)-dione], `N#CC1(c2ccc(CCC3(C4CCCC4)CC(=O)CC(=O)O3)cc2F)CC1` (centres unmarked) [A(86), 1-{4-[2-(2-Cyclopentyl-4,6-dioxo-tetrahydro-pyran-2-yl)-ethyl]-2-fluoro-phenyl}-cyclopropanecarbonitrile] is 95-fold lower in IC50: 38 µM for the first, 0.4 µM for the second.

First: COC1=CC(=O)OC(CCc2ccc(C(C)(C)C#N)c(F)c2)(C2CCCC2)C1 (centres unmarked) [A(145), 2-{4-[2-(2-Cyclopentyl-4-methoxy-6-oxo-3,6-dihydro-2H-pyran-2-yl)-ethyl]-2-fluoro-phenyl}-2-methyl-propionitrile]
Second: CC(C)(C#N)c1ccc(CCC2(C3CCCC3)CC(O)=C(Cc3nc4ncc(Cl)cn4n3)C(=O)O2)cc1F (single isomer, unassigned; (-)) [A(249), (−)-2-(4-{2-[5-(6-Chloro-[1,2,4]triazolo[1,5-a]pyrimidin-2-ylmethyl)-2-cyclopentyl-4,6-dioxo-tetrahydro-pyran-2-yl]-ethyl}-2-fluoro-phenyl)-2-methyl-propionitrile]
The IC50 of the first is 210-fold higher: 3.9 µM for the first, 0.019 µM for the second. The second is the more potent here.

First: CC(C)(C#N)c1c(F)cc(CCC2(C3CCCC3)CC(O)=C(Cc3nc4ncc(Cl)cn4n3)C(=O)O2)cc1F (single isomer, unassigned; (+)) [A(259), (+)-2-(4-{2-[5-(6-Chloro-[1,2,4]triazolo[1,5-a]pyrimidin-2-ylmethyl)-2-cyclopentyl-4-hydroxy-6-oxo-3,6-dihydro-2H-pyran-2-yl]-ethyl}-2,6-difluoro-phenyl)-2-methyl-propionitrile]
Second: CC(C)(C#N)c1c(F)cc(CCC2(C3CCCC3)CC(O)=C(Cc3nc4ncccn4n3)C(=O)O2)cc1F (centres unmarked) [A(144), 2-{4-[2-(2-Cyclopentyl-4-hydroxy-6-oxo-5-[1,2,4]triazolo[1,5-a]pyrimidin-2-ylmethyl-3,6-dihydro-2H-pyran-2-yl)-ethyl]-2,6-difluoro-phenyl}-2-methyl-propionitrile]
The IC50 of the first is 1.8-fold lower: 0.006 µM for the first, 0.011 µM for the second. The first is the more potent here.

First: Cc1nc(CC2=C(O)CC(CCc3ccc(OCC4CC4)c(Cl)c3)(C3CCCC3)OC2=O)n(C)n1 (centres unmarked) [B(70), 6-{2-[3-Chloro-4-(cyclopropylmethoxy)phenyl]ethyl}-6-cyclopentyl-3-[(1.3-dimethyl-1H-1,2,4-triazol-5-yl)methyl]-4-hydroxy-5,6-dihydro-2H-pyran-2-one]
Second: Cc1csc2nc(CC3=C(O)CC(CCc4ccc(OCC5CC5)c(Cl)c4)(C4CCCC4)OC3=O)cc(=O)n12 (centres unmarked) [B(58), 7-[(6-{2-[3-Chloro-4-(cyclopropylmethoxy)phenyl]ethyl}-6-cyclopentyl-4-hydroxy-2-oxo-5,6-dihydro-2H-pyran-3-yl)methyl]-3-methyl-5H-[1,3]thiazolo[3,2-a]pyrimidin-5-one]
The IC50 of the first is 26-fold lower: 0.24 µM for the first, 6.2 µM for the second. The first is the more potent here.

Going from `CC(C)Oc1ccc(CCC2(C3CCCC3)CC(O)=C(Cc3nc4cc(Cl)ccc4n3C(C)C)C(=O)O2)cc1F` (centres unmarked) [B(14), 3-(5-Chloro-1-isopropyl-1H-benzoimidazol-2-ylmethyl)-6-cyclopentyl-6-[2-(3-fluoro-4-isopropoxy-phenyl)-ethyl]-4-hydroxy-5,6-dihydro-pyran-2-one] to `COc1ccc(CCC2(C3CCCC3)CC(O)=C(Cc3nc4nc(C)cc(C)n4n3)C(=O)O2)cc1F` (centres unmarked) [B(01)], the IC50 falls from 0.63 µM to 0.015 µM (42-fold).

`CCc1cc(CCC2(C3CCCC3)CC(O)=C(Cc3nc4nc(C)cc(C)n4n3)C(=O)O2)ccc1OC` (centres unmarked) [B(96), 6-Cyclopentyl-3-(5,7-dimethyl-[1,2,4]triazolo[1,5-a]pyrimidin-2-ylmethyl)-6-[2-(3-ethyl-4-methoxy-phenyl)-ethyl]-4-hydroxy-5,6-dihydro-pyran-2-one] and `CCc1cc(CCC2(C3CCCC3)CC(O)=C(Cc3nc4nc(C)cc(C)n4n3)C(=O)O2)c(O)cc1OC` (centres unmarked) [A(187), 6-Cyclopentyl-3-(5,7-dimethyl-[1,2,4]triazolo[1,5-a]pyrimidin-2-ylmethyl)-6-[2-(5-ethyl-2-hydroxy-4-methoxy-phenyl)-ethyl]-4-hydroxy-5,6-dihydro-pyran-2-one] are within 1.5-fold of each other in IC50: 0.005 µM for the first, 0.004 µM for the second.

First: COc1ccc(CCC2(C3CCCC3)CC(O)=C(Cc3ccc(C#N)cc3)C(=O)O2)cc1Cl (centres unmarked) [B(22), 4-{6-[2-(3-Chloro-4-methoxy-phenyl)-ethyl]-6-cyclopentyl-4-hydroxy-2-oxo-5,6-dihydro-2-pyran-3-ylmethyl}-benzonitrile]
Second: COc1ccc(CCC2(C3CCCC3)CC(O)=C(Sc3nc4ccccc4n3C)C(=O)O2)cc1Cl (centres unmarked) [C(41), 6-[2-(3-chloro-4-methoxyphenyl)ethyl]-6-cyclopentyl-4-hydroxy-3-[(1-methyl-1H-benzimidazol-2-yl)thio]-5,6-dihydro-2H-pyran-2-one]
The IC50 of the first is 7.1-fold higher: 1.2 µM for the first, 0.17 µM for the second.

`COc1ccc(CCC2(C3CCCC3)CC(O)=C(Sc3nnc(-c4cccnc4)[nH]3)C(=O)O2)cc1Cl` (centres unmarked) [C(92), 6-[2-(3-chloro-4-methoxyphenyl)ethyl]-6-cyclopentyl-4-hydroxy-3-[(5-pyridin-3-yl-4H-1,2,4-triazol-3-yl)thio]-5,6-dihydro-2H-pyran-2-one] and `COc1ccc(CCC2(C3CCCC3)CC(O)=C(Sc3nncn3C(C)C)C(=O)O2)cc1Cl` (centres unmarked) [C(36), 6-[2-(3-chloro-4-methoxyphenyl)ethyl]-6-cyclopentyl-4-hydroxy-3-[(4-isopropyl-4H-1,2,4-triazol-3-yl)thio]-5,6-dihydro-2H-pyran-2-one] are within 1.5-fold of each other in IC50: 0.082 µM for the first, 0.079 µM for the second.

Compared with `O=C1OC(CCC2CCCCC2)(C2CCCC2)CC(O)=C1Sc1nnc(-c2ccncc2)[nH]1` (centres unmarked) [C(27), 6-(2-Cyclohexyl-ethyl)-6-cyclopentyl-4-hydroxy-3-(5-pyridin-4-yl-4H-[1,2,4]triazol-3-ylsulfanyl)-5,6-dihydro-pyran-2-one], `CCc1ccc(O)c(CCC2(C3CCCC3)CC(O)=C(Cc3nc4ncc(C)cn4n3)C(=O)O2)c1` (single isomer, unassigned; enantiomer 2) [A(175), Enantiomer 2 of 6-Cyclopentyl-6-[2-(5-ethyl-2-hydroxy-phenyl)-ethyl]-4-hydroxy-3-(6-methyl-[1,2,4]triazolo[1,5-a]pyrimidin-2-ylmethyl)-5,6-dihydro-pyran-2-one] is 280-fold lower in IC50: 2.5 µM for the first, 0.009 µM for the second. The second is the more potent here.

`O=C1CC(=O)OC(CCc2ccc3c(c2)OC(F)(F)C(F)(F)O3)(C2CCCC2)C1` (centres unmarked) [A(59), 6-Cyclopentyl-6-[2-(2,2,3,3-tetrafluoro-2,3-dihydro-benzo[1,4]dioxin-6-yl)-ethyl]-dihydro-pyran-2,4-dione] and `C[C@@H](O)c1ccc(CCC2(C3CCCC3)CC(=O)CC(=O)O2)cc1` (some centres unmarked) [A(35), 6-Cyclopentyl-6-{2-[4-(1-hydroxy-ethyl)-phenyl]-ethyl}-dihydro-pyran-2,4-dione] are within 1.5-fold of each other in IC50: 3.2 µM for the first, 4.1 µM for the second.

Compared with `Cc1csc2nc(CC3=C(O)CC(CCc4ccc(C(F)F)c(F)c4)(C4CCCC4)OC3=O)cc(=O)n12` (centres unmarked) [B(89), 7-[(6-Cyclopentyl-6-{2-[4-(difluoromethyl)-3-fluorophenyl]ethyl}-4-hydroxy-2-oxo-5,6-dihydro-2H-pyran-3-yl)methyl]-3-methyl-5H-[1,3]thiazolo[3,2-a]pyrimidin-5-one], `Cc1cc(C)n2nc(CC3=C(O)CC(CCc4ccc(C(C)(C)O)c(F)c4)(C4CCCC4)OC3=O)nc2n1` (centres unmarked) [A(217), 6-cyclopentyl-3-[(5,7-dimethyl[1,2,4]triazolo[1,5-a]pyrimidin-2-yl)methyl]-6-{2-[3-fluoro-4-(1-hydroxy-1-methylethyl)phenyl]ethyl}-4-hydroxy-5,6-dihydro-2H-pyran-2-one] is 13-fold lower in IC50: 0.185 µM for the first, 0.014 µM for the second.

Compared with `Cc1ccn2nc(CC3=C(O)CC(CCc4cc(F)c(C(C)(C)C#N)c(F)c4)(C4CCCC4)OC3=O)nc2n1` (centres unmarked) [A(253), 2-(4-{2-[2-Cyclopentyl-4-hydroxy-5-(5-methyl-[1,2,4]triazolo[1,5-a]pyrimidin-2-ylmethyl)-6-oxo-3,6-dihydro-2H-pyran-2-yl]-ethyl}-2,6-difluoro-phenyl)-2-methyl-propionitrile], `Cc1cnc2nc(CC3=C(O)CC(CCc4ccc(C(C)(C)CO)c(F)c4)(C4CCCC4)OC3=O)nn2c1` (centres unmarked) [A(269), 6-Cyclopentyl-6-{2-[3-fluoro-4-(2-hydroxy-1,1-dimethyl-ethyl)-phenyl]-ethyl}-4-hydroxy-3-(6-methyl-[1,2,4]triazolo[1,5-a]pyrimidin-2-ylmethyl)-5,6-dihydro-pyran-2-one] is 4.3-fold higher in IC50: 0.006 µM for the first, 0.026 µM for the second.

With `COc1cc(OC)c(CCC2(C3CCCC3)CC(O)=C(Cc3nn(C)cc3Cl)C(=O)O2)cc1Cl` (centres unmarked) [B(32), 6-[2-(5-Chloro-2,4-dimethoxy-phenyl)-ethyl]-3-(4-chloro-1-methyl-1H-pyrazol-3-ylmethyl)-6-cyclopentyl-4-hydroxy-5,6-dihydro-pyran-2-one] the IC50 was 0.07 µM.
